Measurements published in patent US20240416143A1, “PHOTONIC ANTIMICROBIAL WOUND SURFACE DRESSING” (The General Hospital Corporation, priority 2021, published 2024).

How the values were obtained:
E. coli = experiment: Photoinactivation of planktonic cultures by menadione + antimicrobial blue light; type: cell-based, Escherichia coli ATCC 25922; conditions: menadione ⅛ MIC + aBL 90 J/cm^2 (50 mW/cm^2), 405 nm
Description: The bacterial cells were grown in BHI broth medium shaken overnight. Cells were collected by centrifugation at 4,000 rpm for 5 minutes and suspended in PBS at a density of 10^8 colony-forming units (CFU)/mL (estimated by measuring the optical density at 600 nm; O.D 0.1=10^8 cells/mL). The microbial suspension in PBS was transferred to a 35×12-mm dish and mixed with different concentrations of menadione: 0, 0.5, 1 and 2 μg/mL for MRSA USA300, AF003 and IQ0064; 0, 1, 10 and 30 μg/mL for P. aeruginosa PA01; and 0, 16, 32, 64 and 128 μg/mL for E. coli ATCC 25922. After incubation in the dark at 25° C. for 1 hour, the planktonic suspension of cells at room temperature was irradiated using aBL (405 nm) at 50 mW/cm^2 with different radiant exposures (0-250 J/cm^2). During the aBL irradiation, 40 μL of samples were withdrawn every 15 minutes, and the CFUs were determined by 10-fold serial dilutions in PBS (10-1 to 10-7 dilution factors), plated on BHI agar plates as described previously [Ref. 17]. CFUs were counted after overnight incubation at 37° C. Experiments were performed in triplicate.

[1] = tested on: MRSA biofilms in ex-vivo porcine skin; experiment: Photoinactivation of biofilms in ex vivo porcine partial thickness wounds by menadione + aBL; type: cell-based, methicillin-resistant Staphylococcus aureus
Description: Skin was handled and sanitized with 70% isopropanol solution after hair shaving. The explants and inner wounds were created using a 12 mm and 4 mm biopsy punches respectively. The explants were placed in 12 wells plates using a (8 μm pore) inserts (Corning™ Falcon™). 1 mL of DMEM media was added to each well in the plate before the insert. After 24 hours, the inner wounds in the explants were inoculated with 20 μL of 10^8 CFU/mL of bacterial solution. After that, the explants were incubated at 37° C. and 5% CO2 for 48 hours to ensure the growth of a mature bacterial biofilm. The inner wounds of the explants were replenished daily with fresh BHI media to ensure that the wounds are hydrated.
48 hours following the inoculation, mature monobacterial biofilms of MRSA, P. aeruginosa, and E. coli were obtained with 8.00 log10 CFU/g per wound bed on each explant. MRSA biofilms in explant were reduced by 0.81 log10 CFU/g after the treatment of just aBL 250 J/cm^2 (50 mW/cm^2). However, MRSA biofilms in ex-vivo porcine skin were reduced by up to 4.18 log10 CFU/g when treated with aBL combined with menadione (200 μg/mL). For MRSA biofilms, the log reduction of mature monobacterial biofilm increased as the menadione concentration increased (see FIGS. 16A-16B). […]

MRSA = experiment: Hydroxyl radical assay (HPF) in bacteria; type: cell-based, methicillin-resistant Staphylococcus aureus; conditions: 10 μg/mL menadione, 135 J/cm^2
Description: 1.2.9.3 Hydroxyl radical HO′ assay: The hydroxyl radical was measured by 3′-(p-hydroxyphenyl) fluorescein (HPF) (Thermofisher). HPF is a new fluorescein derivative, and it is nonfluorescent until reacted with the hydroxyl radical or peroxynitrite anion. The MRSA were grown in BHI broth medium with shaking overnight. Cells were collected by centrifugation at 4,000 rpm for 5 minutes and resuspended in PBS in the stationary growth phase culture of 1×10^8 CFU/mL. The microbial suspension was transferred to a 35×12-mm dish, mixed with 10 μg/mL of menadione, and stained with 10 μM HPF solution per the manufacturer's instruction. The bacteria were irradiated with the blue light at 50 mW/cm^2 and the samples were collected each 15 minutes to be analyzed by Microplate Spectrofluorometer (SPECTRAmax®, Molecular Devices, USA) at λex=490 nm and λem=515 nm. The control and the menadione/dark groups were generated under the same conditions without irradiation.

NLRP3 inflammasome = NLRP3 inflammasome (Homo sapiens, UniProt Q96P20); conditions: cited from earlier work
Sequence of NLRP3 inflammasome (Q96P20 whole entry): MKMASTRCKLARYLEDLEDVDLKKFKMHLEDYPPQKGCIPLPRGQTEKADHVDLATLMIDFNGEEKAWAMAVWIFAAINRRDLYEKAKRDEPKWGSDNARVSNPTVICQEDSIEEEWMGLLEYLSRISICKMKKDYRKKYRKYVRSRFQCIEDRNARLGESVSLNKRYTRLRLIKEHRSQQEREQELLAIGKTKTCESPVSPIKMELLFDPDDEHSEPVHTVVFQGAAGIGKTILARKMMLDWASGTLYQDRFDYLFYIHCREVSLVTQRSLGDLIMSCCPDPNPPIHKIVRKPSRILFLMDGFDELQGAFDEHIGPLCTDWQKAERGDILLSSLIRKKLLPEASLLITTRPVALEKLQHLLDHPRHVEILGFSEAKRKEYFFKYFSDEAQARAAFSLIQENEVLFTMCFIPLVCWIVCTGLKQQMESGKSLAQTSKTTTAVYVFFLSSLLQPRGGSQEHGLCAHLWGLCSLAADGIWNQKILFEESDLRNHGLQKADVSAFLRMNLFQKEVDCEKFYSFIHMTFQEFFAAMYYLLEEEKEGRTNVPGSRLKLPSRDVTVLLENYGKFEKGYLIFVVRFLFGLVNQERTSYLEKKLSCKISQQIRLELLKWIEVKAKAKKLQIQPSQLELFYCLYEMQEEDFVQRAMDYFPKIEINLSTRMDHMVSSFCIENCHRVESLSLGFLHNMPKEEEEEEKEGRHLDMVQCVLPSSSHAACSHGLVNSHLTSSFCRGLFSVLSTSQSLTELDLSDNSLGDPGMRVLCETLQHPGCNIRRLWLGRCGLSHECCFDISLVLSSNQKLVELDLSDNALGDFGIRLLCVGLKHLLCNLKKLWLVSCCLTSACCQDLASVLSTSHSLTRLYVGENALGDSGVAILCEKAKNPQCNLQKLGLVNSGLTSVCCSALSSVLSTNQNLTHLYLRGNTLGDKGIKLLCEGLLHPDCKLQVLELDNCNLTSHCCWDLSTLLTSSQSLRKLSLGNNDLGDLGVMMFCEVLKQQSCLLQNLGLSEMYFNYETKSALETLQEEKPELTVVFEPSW

[2] = in vivo; cited from earlier work

With `CC1=CC(=O)c2ccccc2C1=O` [menadione, 2-methyl-1,4-naphthoquinone] the “eradication by aBL combined with menadione” value (E. coli) was 6 log10, the “biofilm reduction by menadione in the absence of aBL” value ([1]; ex vivo porcine explants, no aBL) was “no effect of biofilm reduction” and the “biofilm reduction by aBL combined with menadione” value ([1]; ex vivo porcine wound, menadione 200 μg/mL + aBL 250 J/cm^2 (50 mW/cm^2)) was “up to 4.18 log10 CFU/g”. For the same compound, the “hydroxyl radical (HPF), menadione+aBL vs aBL alone” value (MRSA) was 1.77 times, the “inhibition of NLRP3 inflammasome” value (NLRP3 inflammasome) was “selective, potent inhibitor” and the “adverse effect at high doses” value [2] was “hepatitis”.
